From US9982005B2, “Macrolides and methods of their preparation and use” (President and Fellows of Harvard College, priority 2013, dated 2018)
≈ marks a conversion by molar mass, not a printed value. Where two headings read alike, the source gives them in different places.

How the values were obtained:
Assay type in all cases: cell-based
[1] = test system: E. coli strains; test: MIC against E. coli strains (Table M7); settings: for MIC: Escherichia coli, ATCC25922, E. coli ATCC 25922
Text: (§1) We have collected MIC data for a total of 50 novel macrolides that this platform has produced against over 21 unique strains of B. subtilis, E. coli, S. aureus, S. pneumoniae, and H. influenzae, including several multidrug-resistant strains, with a special focus on macrolide resistant mechanisms (vide supra). Azithromycin was included as a control macrolide. CLSI standard procedures for broth dilution MIC determination were used. […] These genotypes can be constitutive or inducible. The finding that C4-epi (unnatural) isomers of the “azaketolide” macrolide class have enhanced activities relative to C4 natural isomers is very exciting.

[2] = test system: A. baumannii strains; test: MIC against A. baumannii strains (Table M8); settings: for MIC: Acinetobacter baumannii, BAA747, A. baumannii BAA747-1
[3] = test system: E. faecalis strains; test: MIC against E. faecalis strains (Table M8); settings: for MIC: Enterococcus faecalis, E. faecalis 29212
[4] = test system: K. pneumoniae strains; test: MIC against K. pneumoniae strains (Table M8); settings: for MIC: Klebsiella pneumoniae, K. pneumoniae 10031
[5] = test system: S. aureus strains; test: MIC against S. aureus strains (Table M7); settings: for MIC: Staphylococcus aureus
Text: as §1

[6] = test system: S. pneumoniae strains; test: MIC against S. pneumoniae strains (Tables M7, M8); settings: for MIC: Streptococcus pneumoniae
Text: CLSI standard procedures for broth dilution MIC determination were used. […] These genotypes can be constitutive or inducible.

[7] = test system: H. influenzae strains; test: MIC against H. influenzae strains (Table M8); settings: for MIC: Haemophilus influenzae
Text: as §1

[8] = ATCC29213, S. aureus ATCC 29213, read-out: MIC S. aureus (ATCC 29213)
[9] = S. aureus 183, read-out: MIC S. aureus (183)
[10] = S. aureus 506, read-out: MIC S. aureus (506)
[11] = S. aureus 1708, read-out: MIC S. aureus (1708)
[12] = USA300, S. aureus USA300, read-out: MIC S. aureus (USA300)
[13] = S. pneumoniae 160, read-out: MIC S. pneumonae (160)
[14] = S. pneumoniae 1509, read-out: MIC S. pneumoniae (1509)
[15] = S. pneumoniae 1533, read-out: MIC S. pneumoniae (1533)
[16] = S. pneumoniae 1537, read-out: MIC S. pneumoniae (1537)
[17] = S. pneumoniae 49619, read-out: MIC S. pneumoniae (49619)
[18] = H. influenzae 49247, read-out: MIC H. influenzae (49247)
[19] = H. influenzae 49766, read-out: MIC H. influenzae (49766)

MIC [1] [µg/mL]	MIC [2] [µg/mL]	MIC [3] [µg/mL]	MIC [4] [µg/mL]	MIC [5, 8] [µg/mL]	MIC [5, 9] [µg/mL]	MIC [5, 10] [µg/mL]	MIC [5, 11] [µg/mL]	MIC [5, 12] [µg/mL]	MIC [6, 13] [µg/mL]	MIC [6, 14] [µg/mL]	MIC [6, 15] [µg/mL]	MIC [6, 16] [µg/mL]	MIC [6, 17] [µg/mL]	MIC [7, 18] [µg/mL]	MIC [7, 19] [µg/mL]	SMILES	also measured
32 (≈ 35.1 µM)	> 32	8 (≈ 8.78 µM)	8 (≈ 8.78 µM)	32 (≈ 35.1 µM)	> 32	> 32	16 (≈ 17.6 µM)	32 (≈ 35.1 µM)	2 (≈ 2.19 µM)	32 (≈ 35.1 µM)	> 32	> 32	1 (≈ 1.1 µM)	4 (≈ 4.39 µM)	16 (≈ 17.6 µM)	CC[C@H]1OC(=O)[C@H](Cc2cncs2)C(=O)[C@H](C)[C@@H](O[C@@H]2OC(C)CC(N(C)C)C2O)[C@](C)(OC)C[C@@H](C)CN[C@H](C)[C@H]2N(CCCCn3cc(-c4cccc(N)c4)nn3)C(=O)O[C@]12C (some centres unmarked) [FSM-56216]	–
32 (≈ 35.4 µM)	32 (≈ 35.4 µM)	0.25 (≈ 0.276 µM)	8 (≈ 8.85 µM)	0.5 (≈ 0.553 µM)	> 32	> 32	0.5 (≈ 0.553 µM)	0.5 (≈ 0.553 µM)	≤ 0.0625	1 (≈ 1.11 µM)	32 (≈ 35.4 µM)	32 (≈ 35.4 µM)	≤ 0.0625	2 (≈ 2.21 µM)	8 (≈ 8.85 µM)	CC[C@H]1OC(=O)[C@H](C)C(=O)[C@H](C)[C@@H](O[C@@H]2OC(C)CC(N(C)C)C2O)[C@](C)(OC)C[C@@H](C)CN[C@H](Cc2ccccc2)[C@H]2N(CCCCn3cc(-c4cccc(N)c4)nn3)C(=O)O[C@]12C (some centres unmarked) [FSM-60353]	–
> 32	> 32	32 (≈ 35.8 µM)	16 (≈ 17.9 µM)	> 32	> 32	> 32	> 32	> 32	8 (≈ 8.95 µM)	> 32	> 32	> 32	2 (≈ 2.24 µM)	8 (≈ 8.95 µM)	32 (≈ 35.8 µM)	CC[C@H]1OC(=O)[C@H](Cc2cn[nH]c2)C(=O)[C@H](C)[C@@H](O[C@@H]2OC(C)CC(N(C)C)C2O)[C@](C)(OC)C[C@@H](C)CN[C@H](C)[C@H]2N(CCCCn3cc(-c4cccc(N)c4)nn3)C(=O)O[C@]12C (some centres unmarked) [FSM-56192]	–
32 (≈ 37.5 µM)	32 (≈ 37.5 µM)	0.25 (≈ 0.293 µM)	8 (≈ 9.37 µM)	1 (≈ 1.17 µM)	> 32	> 32	1 (≈ 1.17 µM)	1 (≈ 1.17 µM)	0.125 (≈ 0.146 µM)	1 (≈ 1.17 µM)	> 32	> 32	0.125 (≈ 0.146 µM)	2 (≈ 2.34 µM)	8 (≈ 9.37 µM)	C=CC[C@H]1NC[C@H](C)C[C@@](C)(OC)[C@H](O[C@@H]2OC(C)CC(N(C)C)C2O)[C@@H](C)C(=O)[C@@H](C)C(=O)O[C@H](CC)[C@@]2(C)OC(=O)N(CCCCn3cc(-c4cccc(N)c4)nn3)[C@H]12 (some centres unmarked) [FSM-11044]	–
> 32	> 32	2 (≈ 2.26 µM)	16 (≈ 18.1 µM)	8 (≈ 9.04 µM)	> 32	> 32	4 (≈ 4.52 µM)	32 (≈ 36.2 µM)	0.5 (≈ 0.565 µM)	0.5 (≈ 0.565 µM)	> 32	> 32	0.125 (≈ 0.141 µM)	8 (≈ 9.04 µM)	32 (≈ 36.2 µM)	CC[C@H]1OC(=O)[C@H](C)C(=O)[C@H](C)[C@@H](O[C@@H]2OC(C)CC(N(C)C)C2O)[C@](C)(OC)C[C@@H](C)CN[C@H](CCN(C)C)[C@H]2N(CCCCn3cc(-c4cccc(N)c4)nn3)C(=O)O[C@]12C (some centres unmarked) [FSM-11052]	–
16 (≈ 19 µM)	16 (≈ 19 µM)	0.5 (≈ 0.594 µM)	4 (≈ 4.75 µM)	2 (≈ 2.38 µM)	> 32	> 32	2 (≈ 2.38 µM)	2 (≈ 2.38 µM)	0.25 (≈ 0.297 µM)	4 (≈ 4.75 µM)	> 32	> 32	0.125 (≈ 0.148 µM)	2 (≈ 2.38 µM)	4 (≈ 4.75 µM)	CC[C@H]1OC(=O)[C@H](C)C(=O)[C@H](C)[C@@H](O[C@@H]2OC(C)CC(N(C)C)C2O)[C@](C)(OC)C[C@@H](C)CCN[C@H](C)[C@H]2N(CCCCn3cc(-c4cccc(N)c4)nn3)C(=O)O[C@]12C (some centres unmarked) [FSM-21397]	–
> 32	> 32	8 (≈ 10.2 µM)	> 32	16 (≈ 20.4 µM)	> 32	> 32	8 (≈ 10.2 µM)	16 (≈ 20.4 µM)	0.5 (≈ 0.637 µM)	> 32	> 32	> 32	2 (≈ 2.55 µM)	8 (≈ 10.2 µM)	> 32	CC[C@H]1OC(=O)C(C)(F)C(=O)[C@H](C)[C@@H](O[C@@H]2OC(C)CC(N(C)C)C2O)[C@](C)(OC/C=C/c2cnc3ccccc3c2)C[C@@H](C)CN[C@H](C)[C@H]2NC(=O)O[C@@]21C (some centres unmarked) [FSM-21088]	–
> 32	> 32	> 32	> 32	> 32	> 32	> 32	> 32	> 32	> 32	> 32	> 32	> 32	> 32	> 32	> 32	CC[C@H]1OC(=O)[C@H](CC(=O)O)C(=O)[C@H](C)[C@@H](O[C@@H]2OC(C)CC(N(C)C)C2O)[C@](C)(OC)C[C@@H](C)CN[C@H](C)[C@H]2N(CCCCn3cc(-c4cccc(N)c4)nn3)C(=O)O[C@]12C (some centres unmarked) [FSM-56185]	–
–	–	–	–	–	–	–	–	–	–	–	–	–	–	–	–	CC[C@H]1OC(=O)[C@H](C)C(=O)[C@H](C)[C@@H](O[C@@H]2OC(C)CC(N(C)C)C2O)[C@](C)(OC)CC(C)N[C@H](C)[C@H]2N(CCCCn3cc(-c4cccc(N)c4)nn3)C(=O)O[C@]12C (some centres unmarked) [FSM-30690]	MIC E. coli (ATCC 25922) ([1]; E. coli ATCC 25922): >32 µg/mL; MIC A. baumannii (BAA747-1) ([2]; A. baumannii BAA747-1): >32 µg/mL; MIC E. faecalis (29212) [3]: >32 µg/mL; MIC K. pneumoniae (10031) [4]: >32 µg/mL; MIC S. aureus (183) ([5]; S. aureus 183): >32 µg/mL; MIC S. aureus (506) ([5]; S. aureus 506): >32 µg/mL; MIC S. aureus (1708) ([5]; S. aureus 1708): >32 µg/mL; MIC S. aureus (ATCC 29213) ([5]; S. aureus ATCC 29213): >32 µg/mL; MIC S. aureus (USA300) ([5]; S. aureus USA300): >32 µg/mL; MIC S. pneumonae (160) ([6]; S. pneumoniae 160): >32 µg/mL; MIC S. pneumoniae (1509) ([6]; S. pneumoniae 1509): >32 µg/mL; MIC S. pneumoniae (1533) ([6]; S. pneumoniae 1533): >32 µg/mL; MIC S. pneumoniae (1537) ([6]; S. pneumoniae 1537): >32 µg/mL; MIC S. pneumoniae (49619) ([6]; S. pneumoniae 49619): >32 µg/mL; MIC H. influenzae (49247) ([7]; H. influenzae 49247): >32 µg/mL; MIC H. influenzae (49766) ([7]; H. influenzae 49766): >32 µg/mL
32 (≈ 38.1 µM)	> 32	–	–	16 (≈ 19 µM)	> 32	> 32	32 (≈ 38.1 µM)	16 (≈ 19 µM)	–	> 32	> 32	> 32	–	–	16 (≈ 19 µM)	C=CC[C@@]1(OC)C[C@@H](C)CN[C@H](C)[C@H]2N(CCCCn3cc(-c4ccccn4)nn3)C(=O)O[C@]2(C)[C@@H](CC)OC(=O)[C@H](C)C(=O)[C@H](C)[C@H]1O[C@@H]1OC(C)CC(N(C)C)C1O (some centres unmarked) [FSM-21423]	MIC E. faecalis (29212) [3]: 4 µg/mL (≈ 4.76 µM); MIC K. pneumoniae (10031) [4]: 8 µg/mL (≈ 9.52 µM); MIC S. pneumonae (160) ([6]; S. pneumoniae 160): 0.25 µg/mL (≈ 0.298 µM); MIC S. pneumoniae (49619) ([6]; S. pneumoniae 49619): 1 µg/mL (≈ 1.19 µM); MIC H. influenzae (49247) ([7]; H. influenzae 49247): 2 µg/mL (≈ 2.38 µM)
4 (≈ 4.68 µM)	16 (≈ 18.7 µM)	2 (≈ 2.34 µM)	4 (≈ 4.68 µM)	8 (≈ 9.37 µM)	> 32	> 32	16 (≈ 18.7 µM)	8 (≈ 9.37 µM)	0.125 (≈ 0.146 µM)	8 (≈ 9.37 µM)	> 32	> 32	–	1 (≈ 1.17 µM)	4 (≈ 4.68 µM)	C=CC[C@@]1(OC)C[C@@H](C)CN[C@H](C)[C@H]2N(CCCCn3cc(-c4cccc(N)c4)nn3)C(=O)O[C@]2(C)[C@@H](CC)OC(=O)[C@H](C)C(=O)[C@@H](C)[C@H]1O[C@@H]1OC(C)CC(N(C)C)C1O (some centres unmarked) [FSM-21367]	MIC S. pneumoniae (49619) ([6]; S. pneumoniae 49619): 0.25 µg/mL (≈ 0.293 µM)
